Where “and” joins values, the source holds several entries; their conditions need not be identical. Equal entries are not always repeated.
Experiments:
Mus musculus [1] = test: Percent increase in life span at 400 mg/kg (437 umol) per day; assay type: functional
Mus musculus [2] = test: Median T/C calculated based on survivors at 400 mg/kg (437 umol) per day against Ip-implanted L1210 lymphoid leukemia mice; assay type: functional
Mus musculus [3] = test: Median T/C calculated based on survivors at 150 mg/kg (164 umol) per day; assay type: functional
Mus musculus [4] = test: Number of survivors in mice bearing ip-implanted L1210 lymphoid leukemia after 45 day; assay type: functional
Mus musculus [5] = test: Percent increase in life span at 150 mg/kg (164 umol) per day; assay type: functional
[6] = Water solubility was determined by UV absorption at 273 nm; assay type: ADME
Mus musculus [7] = test: Percent increase in life span at 300 mg/kg (300 umol) per day; assay type: functional
Mus musculus [8] = test: Median T/C calculated based on survivors at 300 mg/kg (300 umol) per day against Ip-implanted L1210 lymphoid leukemia mice; assay type: functional
Mus musculus [9] = test: Percent increase in life span at 300 mg/kg (318 umol) per day; assay type: functional
Mus musculus [10] = test: Median T/C calculated based on survivors at 300 mg/kg (318 umol) per day against Ip-implanted L1210 lymphoid leukemia mice; assay type: functional
Mus musculus [11] = test: Median T/C calculated based on survivors at 400 mg/kg (389 umol) per day; assay type: functional
Mus musculus [12] = test: Percent increase in life span at 400 mg/kg (389 umol) per day against Ip-implanted L1210 lymphoid leukemia mice; assay type: functional
Mus musculus [13] = test: Percent increase in life span at 150 mg/kg (150 umol) per day; assay type: functional
Mus musculus [14] = test: Percent increase in life span at 400 mg/kg (400 umol) per day; assay type: functional
Mus musculus [15] = test: Median T/C calculated based on survivors at 150 mg/kg (150 umol) per day against Ip-implanted L1210 lymphoid leukemia mice; assay type: functional
Mus musculus [16] = test: Median T/C calculated based on survivors at 400 mg/kg (400 umol) per day against Ip-implanted L1210 lymphoid leukemia mice; assay type: functional
Mus musculus [17] = test: Median T/C calculated based on survivors at 150 mg/kg (154 umol) per day against Ip-implanted L1210 lymphoid leukemia mice; assay type: functional
Mus musculus [18] = test: Median T/C calculated based on survivors at 400 mg/kg (411 umol) per day against Ip-implanted L1210 lymphoid leukemia mice; assay type: functional
Mus musculus [19] = test: Percent increase in life span at 400 mg/kg (411 umol) per day; assay type: functional
Mus musculus [20] = test: Percent increase in life span at 150 mg/kg (154 umol) per day; assay type: functional
Mus musculus [21] = test: Change in weight in mice bearing ip-implanted L1210 lymphoid leukemia on day 8 at 300 mg/kg or 309 umol/kg per day; assay type: functional
Mus musculus [22] = test: Median T/C calculated based on survivors at 300 mg/kg (309 umol) per day against Ip-implanted L1210 lymphoid leukemia mice; assay type: functional
Mus musculus [23] = test: Percent increase in life span at 300 mg/kg (309 umol) per day; assay type: functional
Mus musculus [24] = test: Percent increase in life span at 300 mg/kg (292 umol) per day; assay type: functional
Mus musculus [25] = test: Median T/C calculated based on survivors at 300 mg/kg (292 umol) per day against Ip-implanted L1210 lymphoid leukemia mice; assay type: functional
Mus musculus [26] = test: Change in weight in mice bearing ip-implanted L1210 lymphoid leukemia on day 8 at 300 mg/kg or 292 umol/kg per day; assay type: functional
Mus musculus [27] = test: Median T/C calculated based on survivors at 150 mg/kg (146 umol) per day against Ip-implanted L1210 lymphoid leukemia mice; assay type: functional
Mus musculus [28] = test: Number of survivors in mice bearing ip-implanted L1210 lymphoid leukemia after 45 day against Ip-implanted L1210 lymphoid leukemia mice; assay type: functional
Mus musculus [29] = test: Median T/C calculated based on survivors at 300 mg/kg (328 umol) per day against Ip-implanted L1210 lymphoid leukemia mice; assay type: functional
Mus musculus [30] = test: Percent increase in life span at 200 mg/kg (218 umol) per day; assay type: functional
Mus musculus [31] = test: Median T/C calculated based on survivors at 200 mg/kg (218 umol) per day; assay type: functional
Mus musculus [32] = test: Percent increase in life span at 300 mg/kg (328 umol) per day; assay type: functional
Mus musculus [33] = test: Percent increase in life span at 100 mg/kg (411 umol) per day; assay type: functional
Mus musculus [34] = test: Change in weight in mice bearing ip-implanted L1210 lymphoid leukemia on day 8 at 71 mg/kg or 292 umol/kg per day; assay type: functional
Mus musculus [35] = test: Change in weight in mice bearing ip-implanted L1210 lymphoid leukemia on day 8 at 100 mg/kg or 411 umol/kg per day; assay type: functional
Mus musculus [36] = test: Median T/C calculated based on survivors at 71 mg/kg (292 umol) per day against Ip-implanted L1210 lymphoid leukemia mice; assay type: functional
Mus musculus [37] = test: Percent increase in life span at 71 mg/kg (292 umol) per day; assay type: functional
Mus musculus [38] = test: Median T/C calculated based on survivors at 100 mg/kg (411 umol) per day against Ip-implanted L1210 lymphoid leukemia mice; assay type: functional
Mus musculus [39] = test: Percent increase in life span at 200 mg/kg (822 umol) per day; assay type: functional
Mus musculus [40] = test: Median T/C calculated based on survivors at 200 mg/kg (822 umol) per day against Ip-implanted L1210 lymphoid leukemia mice; assay type: functional
Mus musculus [41] = test: Change in weight in mice bearing ip-implanted L1210 lymphoid leukemia on day 8 at 200 mg/kg or 822 umol/kg per day; assay type: functional

CCCCCCCCCCCCCCCC(=O)OC(COP(=O)([O-])OP(=O)([O-])OC[C@H]1OC(n2ccc(N)nc2=O)[C@@H](O)[C@@H]1O)CSCCCCCCCCCC.[Na+].[Na+] (some centres not stated)
ILS at 400 mg/kg (Mus musculus [1]): 114%
Median T/C (Mus musculus [2]): 15
Median T/C (Mus musculus [3]): 21
Survivors (Mus musculus [4]): 0
ILS at 150 mg/kg (Mus musculus [5]): 200%
solubility [6]: > 58 mM

CCCCCCCCCCCCCCCCSCC(COP(=O)([O-])OP(=O)([O-])OC[C@H]1OC(n2ccc(N)nc2=O)[C@@H](O)[C@@H]1O)OC(=O)CCCCCCCCCCCCCCC.[Na+].[Na+] (some centres not stated)
ILS at 300 mg/kg (Mus musculus [7]): > 436%
Median T/C (Mus musculus [8]): 37.5
Survivors (Mus musculus [4]): 2
solubility [6]: 0.2 mM

CCCCCCCCCCCCCCCCSCC(COP(=O)([O-])OP(=O)([O-])OC[C@H]1OC(n2ccc(N)nc2=O)[C@@H](O)[C@@H]1O)OC(=O)CCCCCCCCCCC.[Na+].[Na+] (some centres not stated)
Survivors (Mus musculus [4]): 2
ILS at 300 mg/kg (Mus musculus [9]): 178%
Median T/C (Mus musculus [10]): 19.5
solubility [6]: > 64 mM

CCCCCCCCCCCCCCCCCC(=O)OC(COP(=O)([O-])OP(=O)([O-])OC[C@H]1OC(n2ccc(N)nc2=O)[C@@H](O)[C@@H]1O)CSCCCCCCCCCCCCCCCC.[Na+].[Na+] (some centres not stated)
Survivors (Mus musculus [4]): 3
Median T/C (Mus musculus [11]): >43.5
solubility [6]: 0.2 mM
ILS at 400 mg/kg (Mus musculus [12]): > 521%

CCCCCCCCCCCCCCCCCCSCC(COP(=O)([O-])OP(=O)([O-])OC[C@H]1OC(n2ccc(N)nc2=O)[C@@H](O)[C@@H]1O)OC(=O)CCCCCCCCCCCCC.[Na+].[Na+] (some centres not stated)
ILS at 150 mg/kg (Mus musculus [13]): > 464%
Survivors (Mus musculus [4]): 1 and 3
ILS at 400 mg/kg (Mus musculus [14]): 213%
Median T/C (Mus musculus [15]): 39.5
Median T/C (Mus musculus [16]): 25
solubility [6]: > 62 mM

CCCCCCCCCCCCCCCC(=O)OC(COP(=O)([O-])OP(=O)([O-])OC[C@H]1OC(n2ccc(N)nc2=O)[C@@H](O)[C@@H]1O)CSCCCCCCCCCCCCCC.[Na+].[Na+] (some centres not stated)
Median T/C (Mus musculus [17]): 29.5
Median T/C (Mus musculus [18]): >36.5 and 34.5
ILS (Mus musculus [19]): >421% and 393%
ILS at 150 mg/kg (Mus musculus [20]): 321%
Weight change (Mus musculus [21]): 0.5 g mouse-1
Survivors (Mus musculus [4]): 3 and 1 and 2
solubility [6]: 1.5 mM

CCCCCCCCCCCCCCSCC(COP(=O)([O-])OP(=O)([O-])OC[C@H]1OC(n2ccc(N)nc2=O)[C@@H](O)[C@@H]1O)OC(=O)CCCCCCCCCCCCC.[Na+].[Na+] (some centres not stated)
Survivors (Mus musculus [4]): 2
ILS at 300 mg/kg (Mus musculus [9]): 243%
Median T/C (Mus musculus [10]): 24
solubility [6]: > 60 mM

CCCCCCCCCCCCCCCCSCC(COP(=O)([O-])OP(=O)([O-])OC[C@H]1OC(n2ccc(N)nc2=O)[C@@H](O)[C@@H]1O)OC(=O)CCCCCCCCCCCCC.[Na+].[Na+] (some centres not stated)
Weight change (Mus musculus [21]): -1.8 g mouse-1
Median T/C (Mus musculus [22]): 34
Survivors (Mus musculus [4]): 2
ILS at 300 mg/kg (Mus musculus [23]): 386%
solubility [6]: > 53 mM

CCCCCCCCCCCCCCSCC(COP(=O)([O-])OP(=O)([O-])OC[C@H]1OC(n2ccc(N)nc2=O)[C@@H](O)[C@@H]1O)OC(=O)CCCCCCCCCCC.[Na+].[Na+] (some centres not stated)
ILS at 400 mg/kg (Mus musculus [1]): 129%
Median T/C (Mus musculus [2]): 16
Survivors (Mus musculus [4]): 0
solubility [6]: > 50 mM

CCCCCCCCCCCCCCCCCCSCC(COP(=O)([O-])OP(=O)([O-])OC[C@H]1OC(n2ccc(N)nc2=O)[C@@H](O)[C@@H]1O)OC(=O)CCCCCCCCCCCCCCC.[Na+].[Na+] (some centres not stated) [CYTOROS]
ILS (Mus musculus [24]): >543% and >293%
Median T/C (Mus musculus [25]): >45
Weight change (Mus musculus [26]): -2.4 g mouse-1
Survivors (Mus musculus [4]): 1
Median T/C (Mus musculus [27]): 27.5
solubility [6]: 0.2 mM
Survivors (Mus musculus [28]): 4

CCCCCCCCCCCCCC(=O)OC(COP(=O)([O-])OP(=O)([O-])OC[C@H]1OC(n2ccc(N)nc2=O)[C@@H](O)[C@@H]1O)CSCCCCCCCCCCCC.[Na+].[Na+] (some centres not stated)
Median T/C (Mus musculus [29]): 14.5
ILS at 200 mg/kg (Mus musculus [30]): 463%
Median T/C (Mus musculus [31]): >45
ILS at 300 mg/kg (Mus musculus [32]): 81%
solubility [6]: > 68 mM

CCCCCCCCCCCCCCCCCCSCC(COP(=O)([O-])OP(=O)([O-])OC[C@H]1OC(n2ccc(N)nc2=O)[C@@H](O)[C@@H]1O)OC(=O)CCCCCCCCCCC.[Na+].[Na+] (some centres not stated)
Median T/C (Mus musculus [17]): 33
ILS at 150 mg/kg (Mus musculus [20]): 371%
Median T/C (Mus musculus [22]): 25
Survivors (Mus musculus [4]): 1 and 2
ILS at 300 mg/kg (Mus musculus [23]): 213%
solubility [6]: > 54 mM

Nc1ccn([C@@H]2O[C@H](CO)[C@@H](O)[C@@H]2O)c(=O)n1 [CYTARABINE]
ILS at 100 mg/kg (Mus musculus [33]): 129%
Weight change (Mus musculus [34]): -3.8 g mouse-1
Weight change (Mus musculus [35]): -3.1 g mouse-1
Median T/C (Mus musculus [36]): 8
ILS at 71 mg/kg (Mus musculus [37]): 23%
Median T/C (Mus musculus [38]): 16
Survivors (Mus musculus [4]): 0
ILS at 200 mg/kg (Mus musculus [39]): 100%
Median T/C (Mus musculus [40]): 14
Weight change (Mus musculus [41]): -6.1 g mouse-1
